Experiments:
[1] = tested on: neurons in astrocyte-neuron co-culture; test: MTT mitochondrial activity in neurons from astrocyte-neuron co-cultures; assay type: cell-based, mouse; settings: 10 μM, 2 hours
Description: Primary mouse neuronal cultures were obtained from 18-day OF1 mouse embryos (Charles River Laboratories). Briefly, cortices were isolated and minced in small pieces under a dissecting microscope. The cells were incubated for 30 min at 37° C. in a solution containing 20 U/ml papain, 1 mM L-cysteine and 10 kU/ml DNase I. After dissociation, papain activity was stopped by the addition of fetal calf serum (FCS). Single-cell suspension was then obtained by mechanical dissociation, which consisted in cells trituration in a Neurobasal+B-27+Glutamax medium. The cells were seeded at an average density of ˜1.5×10^5 cells/cm^2 on poly-D-lysine coated 12-well culture plates and grown in Neurobasal medium supplemented with B-27 and Glutamax at 37° C. in a humidified atmosphere containing 5% CO2/95% air. Neurons were used at DIV10. […]
Neuron pure culture or astrocyte-neuron co-cultures were treated for 2 hours with compound (2) at 10 μM in a solution composed of Neurobasal complemented with B-27 and Glutamax, as well as 0.25 mg/ml thiazol blue tetrazolium bromide (MTT). […] After stimulation, empty coverslips (neuron pure cultures) or astrocytes on coverslips (astrocyte-neuron co-cultures) were separated from neurons, medium was removed and the amount of reduced MTT, i.e formazan, solubilized in DMSO (50 μl/well) was determined using a spectrophotometer (absorbance of 570 nm).

GLUT1-DS transgenic mice = test: Rotarod motor function in GLUT1-DS transgenic mice; assay type: in vivo, mouse; settings: single administration 10 mg/kg, 20 min before rotarod
Excerpt: Heterozygous transgenic mice on 129/SvJ genetic background in which glucose transporter 1 (GLUT1) has been knocked down were used (GLUT1(+/−)) (Wang et al., 2016, Human Molecular Genetics, 15(7)). GLUT1-deficiency syndrome (GLUT1-DS) is a prototypic hypometabolic diseases caused by the mutation of GLUT1 and decreased levels of glucose and lactate in the brain (Tang et al., 2019, Annals of Clinical and Translational Neurology 6(9)). Mating colonies were composed of wild-type female mice and GLUT1-DS male mice, or GLUT1-DS female mice and wild-type male mice. F1 pups were genotyped after ear punching at weaning using PCR to determine genotype. Mice of 2 to 3 months of age were used.
Motor function was measured in wild-type (WT) and GLUT 1-DS transgenic mice in the rotarod after single administration of Veh. or compound (1) or (2) (10 mg/kg) 20 min before rotarod. Rotarod testing consisted in placing the mouse on an accelerating rotating rod (4 to 40 r.p.m.) during a maximum of 300 seconds. 3 consecutive sessions with 15 min apart were performed. Latency for the mouse to fall from the rod was recorded and the maximal latency over the 3 trials was used as a measure of motor function.

[2] = tested on: old C57Bl/6J wild-type mice; test: Morris Water Maze memory in old (16-month-old) wild-type mice; assay type: in vivo, mouse; settings: 1 day after training
Description: Adult male C57Bl/6J wild-type from 3 month of age (young adults) to 16 month of age (old adults) are used (Charles River). Animals are housed in groups of 3-5 in polypropylene cages (30×40×15 cm) with wire mesh top in a temperature (22±2° C.) and humidity (55±15%) controlled environment on a 12-hour light cycle (07.00-19.00 h lights on). The samples (Vehicle or compounds of the invention) are administered per os (gavage) in a solution made of water supplemented with 0.4% hydroxypropyl methylcellulose (HPMC) Methocel 4 KM (w/v) and 0.25% Tween-20 (v/v), as previously described (Thackaberry et al., 2010, Toxicol Sci., 117(2):485-92). Memory of young adults treated with Vehicle or Old adults treated with Vehicle or compound (1) at 10 mg/kg or 30 mg/kg is tested in the Morris Water Maze, as described below. Treatment is administered at each day of training, 30 minutes before the first training session. No treatment is administered during memory retention test.
(§1) Morris Water Maze (MWM), a well-established spatial and contextual memory test, will be used. […] A number of parameters including the latency to find the platform, time spent around the platform, path efficiency, % time spent in each quadrant is recorded, using automated tracking software (Ethovision). The type of exploration (direct, random, scan of the area) is also recorded. […]

[3] = tested on: mice injected with streptozotocin; test: Morris Water Maze in streptozotocin ICV injection model of Alzheimer's disease; assay type: in vivo, mouse; settings: 30 mg/kg, 1 Day after training, vs Veh
Description: Craniotomies are performed on isoflurane-anesthetized mice for injections of Veh or streptozotocin in cerebral ventricles (coordinates: −0.5 mm (to bregma), lateral+/−1.0 mm (to midline), ventral −2.2 mm (to dura)) (Kelliny S. et al., Molecular Neurobiology, 2021). A solution composed of Veh (0.9% NaCl) or streptozotocin (5 mg/kg) prepared in 1 μl artificial cerebrospinal fluid solution (aCSF, 20 mM citrate buffer, pH 4.2) is injected in both cerebral ventricles using Hamilton micro syringe at a constant speed of 100-200 nl/min. After injection, skin of the skull is sutured, and mice is monitored closely and receives analgesic treatment for at least 4 days. After mice had fully recovered from surgery, memory tests including Morris Water Maze (MWM), Inhibitory Avoidance (IA) and Novel Object Recognition (NOR), as described below, are performed. […]
as §1

SMILES: COc1cc2ccnc(Nc3ccc(S(C)(=O)=O)cc3)c2cc1OC [Compound 2, 6,7-dimethoxy-N-(4-methylsulfonylphenyl)isoquinolin-1-amine]
- mitochondrial activity of neurons (MTT) [1]: enhances mitochondrial activity of neurons in astrocyte-neuron co-culture
- rotarod performance (latency to fall) (GLUT1-DS transgenic mice): increased rotarod performance
- memory in the Morris Water Maze ([2]; 10 mg/kg per os): significant increase of memory
- memory in the Morris Water Maze ([2]; 30 mg/kg per os): significant increase of memory
- memory in the Morris Water Maze [3]: significantly higher
